We go through two compounds from patent publication US20170232017A1, “TREATMENT OF CANCER” (Threshold Pharmaceuticals, Inc., priority 2012, published 2017).

The data set concerns patients with first-line advanced pancreatic cancer. As to the kind of experiment: randomized controlled Phase 2b clinical trial of TH-302 in combination with gemcitabine vs gemcitabine alone (NCT01144455). The procedure:
(§1) The clinical trial was conducted as a multi-center, randomized, controlled, dose-ranging, Phase 2b crossover clinical trial of TH-302 in combination with gemcitabine in patients with first line advanced pancreatic cancer. The primary endpoint of the trial was progression-free survival. The secondary endpoints were overall response rate, overall survival, change in CA 19-9 as well as various other efficacy and safety parameters. Tumor response was evaluated at baseline and every eight weeks using RECIST. Patients for whom monotherapy with gemcitabine is considered standard therapy were eligible for the trial. Patients were randomized equally into one of three cohorts: TH-302 at a dose of 240 mg/m^2 plus gemcitabine, TH-302 at a dose of 340 mg/m^2 plus gemcitabine, or gemcitabine alone. Patients who successfully completed six cycles of treatment without evidence of significant treatment-related toxicity or progressive disease could continue to receive treatment. If a patient experienced cancer progression on gemcitabine alone, the patient could cross over and be randomized into one of the TH-302 plus gemcitabine cohorts. The primary efficacy analysis was performed based upon 149 investigator-assessed PFS events and per protocol pooled the data from the two gemcitabine plus TH-302 dose groups in the comparison to gemcitabine alone.
In a separate Phase 2b trial, TH-302 was administered intravenously for 30 to 60 minutes on days 1, 8 and 15 of a 28 day cycle at either 240 mg/m^2 or 340 mg/m^2. Gemcitabine was dosed according to its package insert on days 1, 8 and 15 of a 28 day cycle. The 214 patient randomized controlled Phase 2b clinical trial compared the efficacy and safety of these two doses (240 mg/m^2 and 340 mg/m^2) of TH-302 in combination with gemcitabine to gemcitabine alone in patients with first-line advanced pancreatic cancer.
as §1, with “CA19-9” for “CA 19-9”, “over” for “over and be randomized”
This example is an update of the open-label, multicenter, randomized, Phase 2b study (NCT01144455) of two dose levels of TH-302 in combination with gemcitabine vs gemcitabine alone. The update was conducted in September 2012 and including a further follow-up of the data provided in Example 2.
Patients were stratified according to their disease stage (unresectable locally advanced vs distant metastases) and randomized as shown in FIG. 4.

On to `Cn1c(COP(=O)(NCCBr)NCCBr)cnc1[N+](=O)[O-]` [TH-302, (2-bromoethyl)({[(2-bromoethyl)amino][(2-nitro-3-methylimidazol-4-yl)methoxy]phosphoryl})-amine], for which the “improvement in median PFS” value (TH-302 treated groups (combined) vs gemcitabine alone) is given as “about 2 months”. The “Skin and mucosal toxicities related to TH-302” value (in combination with gemcitabine) is “dose dependent but not dose limiting”. The “median PFS” value (two groups (combined) that received TH-302 at different doses plus gemcitabine, FIG. 2A) is on record as 5.6 months.

Consider `Nc1ccn([C@@H]2O[C@H](CO)[C@@H](O)C2(F)F)c(=O)n1` [gemcitabine], for which, for the setting “gemcitabine alone arm, primary analysis”, the response rate amounted to 12%. Also, the “median progression-free survival (PFS)” value (gemcitabine alone, primary analysis) is 3.6 months. In addition, where the note is “human, in vivo”, the “Median time to CA 19-9 response, months (range)” value is recorded as 1.8 (0.9-5.6) months; the “Patients with AEs, (%): Any rash” value is 16%; the “Patients with AEs, (%): Pyrexia” value was found to be 23%; the “Patients with AEs, (%): Stomatitis” value stood at 7%. For the same compound, under “patients with baseline > upper limit of normal and at least one post-baseline assessment”, the “Mean CA 19-9 nadir change” value is given as −523 U/mL. Besides, for the setting “percent of patients”, the “CA 19-9 decrease >20%, (%)” value came to 68%; the “CA 19-9 decrease >50%, (%)” value amounted to 52%; the “CA 19-9 decrease >90%, (%)” value came to 16%. For the same compound, where the note is “update September 2012”, the 6-month survival rate was 57%; the 12-month survival rate stood at 26%; the “Disease control (CR, PR, plus stable disease)” value is recorded as 67 % of patients; the “Grade 3/4 febrile neutropenia” value is recorded as 0 % of patients. For the same compound, under “update September 2012”, the “Objective best (unconfirmed) response (CR plus PR)” value is given as 10 % of patients, the “Treatment-emergent Grade 3/4 neutropenia” value is reported as 16 % of patients and the “Treatment-emergent Grade 3/4 thrombocytopenia” value turned out to be 10%. Moreover, for the setting “update September 2012, FIG. 5A”, the “median PFS” value amounted to 3.6 months. For the same compound, under “update September 2012, FIG. 5B”, the “Median OS” value came out at 6.9 months.
